Experimental data as given in US20020127544A1, “Modulators of US 28” (priority 2000, published 2002).
Where a name gives a salt, the structure may show the parent alone. Read-outs that look alike come from different tables or passages of the source.

B1: Fractalkine: the CX3C chemokine, ligand of US28 (protein, UniProt P78423 25-397, looked up)
Fractalkine: QHHGVTKCNITCSKMTSKIPVALLIHYQQNQASCGKRAIILETRQHRLFCADPKEQWVKDAMQHLDRQAAALTRNGGTFEKQIGEVKPRTTPAAGGMDESVVLEPEATGESSSLEPTPSSQEAQRALGTSPELPTGVTGSSGTRLPPTPKAQDGGPVGTELFRVPPVSTAATWQSSAPHQPGPSLWAEAKTSEAPSTQDPSTQASTASSPAPEENAPSEGQRVWGQGQSPRPENSLEREEMGPVPAHTDAFQDWGPGSMAHVSVVPVSSEGTPSREPVASGSWTPKAEEPIHATMDPQRLGVLITPVPDAQAATRRQAVGLLAFLGLLFCLGVAMFTYQSLQGCPRKMAGEMAEGLRYIPRSCGSNSYVLVPV

Experiments:
[1] = molecular target: T1, US28 (Human cytomegalovirus, UniProt P69332); assay: 125I-fractalkine radioligand binding to US28 on US28-NSO cells; design: host or cells: mouse NSO cells (US28-NSO); species or system Cytomegalovirus (CMV)
T1 sequence (P69332 whole entry): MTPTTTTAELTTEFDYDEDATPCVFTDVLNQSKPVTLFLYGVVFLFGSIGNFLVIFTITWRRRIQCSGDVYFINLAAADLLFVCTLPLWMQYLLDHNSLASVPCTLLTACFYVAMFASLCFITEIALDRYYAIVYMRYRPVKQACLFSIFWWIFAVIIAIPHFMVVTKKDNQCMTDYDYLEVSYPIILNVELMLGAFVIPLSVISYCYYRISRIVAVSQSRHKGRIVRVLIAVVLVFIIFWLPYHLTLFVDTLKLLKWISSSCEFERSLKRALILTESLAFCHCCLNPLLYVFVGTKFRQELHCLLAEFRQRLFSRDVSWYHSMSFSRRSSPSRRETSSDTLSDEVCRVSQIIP
Protocol: The US28 expressing cells used in most assays consist of a mouse cell line (NSO cells from ATCC) stably expressing transfected US28 cDNA under the control of a CMV promoter (from R & D Systems). These cells were cultured in IMDM-5% FBS, and harvested when the concentration was between 0.5-1.0×10^6 cells/mL. Some assays were performed with adherent human 293 cells (US28-293 cells) or membranes. The cells were centrifuged and resuspended in assay buffer (20 mM HEPES, 140 mM NaCl, 1 mM CaCl2, 5 mM MgCl2, and with 0.2% bovine serum albumin) to a concentration of 5.6×10^6 cells/mL. Using the Multi-Probe automated system, set up with 8 assay plates at a time, first 0.09 mL of cells was added to the assay plates containing the compounds. The final concentration of the compounds was 5 μg/mL each. Then 0.09 mL of ^1251I-fractalkine diluted in assay buffer (final concentration ˜2-10fM, with ˜30,000 cpm per well) was added, the plates sealed and incubated for approximately 3 hours at 4 degrees C on a shaker platform. […] Scintillation fluid (35 μL) was added to all wells, the plates were sealed and counted in a Top Count scintillation counter. […]
Methiothepin mesylate (from the RBI division of Sigma Chemical Co., St. Louis, Mo., USA, Catalog No. M-149) and octoclothepin maleate (from RBI, Catalog No. O-111) were evaluated in the assays described in Examples 1 and 2. […]

[2] = molecular target: T1, US28; assay: cytoplasmic calcium mobilization in US28-293 cells; assay type: cell-based, Cytomegalovirus (CMV); design: expressed in transfected cells; host or cells: human 293 cells (US28-293); settings: INDO-1 dye, mimicking the action of fractalkine in binding and signaling (FIG. 2)
Protocol: For each test, 1×10^6 cells were incubated at 37° C. in the cuvette of a PTI spectrometer, and the ratio of 410/490 nm emission plotted over time (typically 2-3 minutes), with compounds added at 5 seconds, followed by fractalkine at 60 seconds. […] Compounds which inhibited fractalkine binding were tested in this assay for the effects on Ca2+ in this system.
Methiothepin mesylate (from the RBI division of Sigma Chemical Co., St. Louis, Mo., USA, Catalog No. M-149) and octoclothepin maleate (from RBI, Catalog No. O-111) were evaluated in the assays described in Examples 1 and 2. The IC50 values were 0.3 μM for methiothepin mesylate and 0.7 μM for octoclothepin maleate.

[3] = molecular target: T1, US28; design: host or cells: mouse NSO cells (US28-NSO); settings: CX3C chemokine binding to US28; read-out: KI, binding affinity to US28; cited from earlier work

Row | Molecule | IC50 [1] | mode of action in calcium mobilization [2] | IC50 ([1]; dose response against fractalkine on US28-NSO cells (FIG. 1), read-out: IC50, inhibition of fractalkine binding to US28) | Ki [3]
1 | CSc1ccc2c(c1)C(N1CCN(C)CC1)Cc1ccccc1S2 (centres unmarked) [methiothepin mesylate, methiothepin] | 300 nM | competitive agonists | – | –
2 | CN1CCN(C2Cc3ccccc3Sc3ccc(Cl)cc32)CC1.O=C(O)/C=C\C(=O)O (centres unmarked) [octoclothepin maleate, octoclothepin] | – | competitive agonists | 700 nM | –
3 | B1 | – | – | – | ~0.05 nM
